target: Gamma-secretase; assay: Inhibitory concentration against Gamma-secretase in whole cell inhibition assay using SH-SY5Y cells; format: functional, cell-based, Homo sapiens; conditions: not given

| SMILES | IC50 [nM] |
| --- | --- |
| O=C(CN1CCCC1)Nc1ccc2c(c1)CC1CCC(C2)C1NS(=O)(=O)c1ccc(Cl)s1 (stereo not given) | 7 |
| O=S(=O)(NC1C2CCC1Cc1cc(/C=C/CN3CCN(c4ccccc4)CC3)ccc1C2)c1ccc(Cl)s1 (stereo not given) | 21 |
| O=S(=O)(NC1C2CCC1Cc1ccccc1C2)c1cccc(F)c1 (stereo not given) | 324 |
| O=S(=O)(NC1C2CCC1Cc1ccccc1C2)c1ccc(Cl)s1 (stereo not given) | 62 |
| Cc1cccc(S(=O)(=O)NC2C3CCC2Cc2ccccc2C3)c1 (stereo not given) | > 1000 |
| CC1CCCN1CCOc1ccc2c(c1)CC1CCC(C2)C1NS(=O)(=O)c1ccc(Cl)s1 (stereo not given) | 335 |
| O=S(=O)(NC1C2CCC1Cc1cc(OCCN3CCOCC3)ccc1C2)c1ccc(Cl)s1 (stereo not given) | 5 |
| O=S(=O)(NC1C2CCC1Cc1ccccc1C2)c1ccccc1 (stereo not given) | 190 |
| Cc1ccc(S(=O)(=O)NC2C3CCC2Cc2ccccc2C3)cc1 (stereo not given) | 651 |
| CCS(=O)(=O)NC1C2CCC1Cc1ccccc1C2 (stereo not given) | > 1000 |
| COc1ccc2c(c1)CC1CCC(C2)C1NS(=O)(=O)c1ccc(Cl)s1 (stereo not given) | 490 |
| O=C(Nc1ccc2c(c1)CC1CCC(C2)C1NS(=O)(=O)c1ccccc1)OCc1ccccc1Cl (stereo not given) | 153 |
| O=C(Nc1ccc2c(c1)CC1CCC(C2)C1NS(=O)(=O)c1ccccc1)OCc1ccc(Cl)cc1 (stereo not given) | 16 |
| O=S(=O)(NC1C2CCC1Cc1cc(O)ccc1C2)c1ccc(Cl)s1 (stereo not given) | 269 |
| O=S(=O)(NC1C2CCC1Cc1cc(/C=C/Cn3ccnc3)ccc1C2)c1ccc(Cl)s1 (stereo not given) | 15 |
| O=S(=O)(NC1C2CCC1Cc1cc(Cl)ccc1C2)c1ccc(Cl)s1 (stereo not given) | 146 |
| O=C(Nc1ccc2c(c1)CC1CCC(C2)C1NS(=O)(=O)c1ccc(Cl)s1)c1ccccn1 (stereo not given) | 12 |
| O=C(Nc1ccc2c(c1)CC1CCC(C2)C1NS(=O)(=O)c1ccccc1)c1ccccn1 (stereo not given) | 75 |
| O=C(CN1CCOCC1)Nc1ccc2c(c1)CC1CCC(C2)C1NS(=O)(=O)c1ccc(Cl)s1 (stereo not given) | 7 |
| CCN(CC)CC(=O)Nc1ccc2c(c1)CC1CCC(C2)C1NS(=O)(=O)c1ccc(Cl)s1 (stereo not given) | 41 |
| O=S(=O)(NC1C2CCC1Cc1ccccc1C2)c1cc(Cl)c(Cl)s1 (stereo not given) | > 1000 |

| SMILES | IC50 [nM] |
| --- | --- |
| O=S(=O)(NC1C2CCC1Cc1ccccc1C2)c1ccc(F)cc1 (stereo not given) | 129 |
| Nc1ccc2c(c1)CC1CCC(C2)C1NS(=O)(=O)c1ccccc1 (stereo not given) | 6000 |
| COCC(=O)Nc1ccc2c(c1)CC1CCC(C2)C1NS(=O)(=O)c1ccccc1 (stereo not given) | > 1000 |
| CC(=O)Nc1ccc2c(c1)CC1CCC(C2)C1NS(=O)(=O)c1ccccc1 (stereo not given) | > 1000 |
| CCCS(=O)(=O)NC1C2CCC1Cc1ccccc1C2 (stereo not given) | 721 |
| O=S(=O)(NC1C2CCC1Cc1ccccc1C2)c1ccc(C(F)(F)F)cc1 (stereo not given) | > 1000 |
| CN1CCN(C/C=C/c2ccc3c(c2)CC2CCC(C3)C2NS(=O)(=O)c2ccc(Cl)s2)CC1 (stereo not given) | 39 |
| CCCCS(=O)(=O)NC1C2CCC1Cc1ccccc1C2 (stereo not given) | 610 |
| CCc1ccc(S(=O)(=O)NC2C3CCC2Cc2ccccc2C3)cc1 (stereo not given) | > 1000 |
| O=S(=O)(NC1C2CCC1Cc1cc(F)ccc1C2)c1ccccc1 (stereo not given) | 70 |
| O=C(Nc1ccc2c(c1)CC1CCC(C2)C1NS(=O)(=O)c1ccccc1)c1ccccc1 (stereo not given) | > 1000 |
| O=S(=O)(NC1C2CCC1Cc1cc(/C=C/CN3CCOCC3)ccc1C2)c1ccc(Cl)s1 (stereo in doubt; form 2) | 315 |
| O=[N+]([O-])c1ccc(S(=O)(=O)NC2C3CCC2Cc2ccccc2C3)cc1 (stereo not given) | > 1000 |
| O=C(Nc1ccc2c(c1)CC1CCC(C2)C1NS(=O)(=O)c1ccccc1)c1cccnc1 (stereo not given) | > 1000 |
| O=C(CN1CCCCC1)Nc1ccc2c(c1)CC1CCC(C2)C1NS(=O)(=O)c1ccc(Cl)s1 (stereo not given) | 6 |
| CC1CCCCN1CCOc1ccc2c(c1)CC1CCC(C2)C1NS(=O)(=O)c1ccc(Cl)s1 (stereo not given) | 227 |
| O=S(=O)(NC1C2CCC1Cc1c(Cl)cccc1C2)c1ccc(Cl)s1 (stereo not given) | 175 |
| O=S(=O)(NC1C2CCC1Cc1cc(/C=C/CN3CCOCC3)ccc1C2)c1ccc(Cl)s1 (racemic) | 5 |
| O=S(=O)(NC1C2CCC1Cc1ccccc1C2)c1ccccc1F (stereo not given) | 239 |
| O=C(CCc1ccccc1)Nc1ccc2c(c1)CC1CCC(C2)C1NS(=O)(=O)c1ccccc1 (stereo not given) | > 1000 |
| O=S(=O)(NC1C2CCC1Cc1cc(/C=C/CN3CCCCC3)ccc1C2)c1ccc(Cl)s1 (stereo not given) | 152 |

| SMILES | IC50 [nM] |
| --- | --- |
| O=C(Nc1ccc2c(c1)CC1CCC(C2)C1NS(=O)(=O)c1ccc(Cl)s1)OCc1ccccc1 (stereo not given) | 23 |
| CCCCCC(=O)Nc1ccc2c(c1)CC1CCC(C2)C1NS(=O)(=O)c1ccccc1 (stereo not given) | > 1000 |
| CN1CCN(CC(=O)Nc2ccc3c(c2)CC2CCC(C3)C2NS(=O)(=O)c2ccc(Cl)s2)CC1 (stereo not given) | 69 |
| O=S(=O)(NC1C2CCC1Cc1c(F)cccc1C2)c1ccc(Cl)s1 (stereo not given) | 34 |
| O=S(=O)(NC1C2CCC1Cc1cc(/C=C/CN3CCOCC3)ccc1C2)c1ccc(Cl)s1 (stereo in doubt; form 1) [listing 1 of 2 here] | 1 |
| O=C(CNCc1ccccc1)Nc1ccc2c(c1)CC1CCC(C2)C1NS(=O)(=O)c1ccc(Cl)s1 (stereo not given) | 3490 |
| O=S(=O)(NC1C2CCC1Cc1ccccc1C2)c1ccc(Cl)cc1 (stereo not given) | 467 |
| CN(CC(=O)Nc1ccc2c(c1)CC1CCC(C2)C1NS(=O)(=O)c1ccc(Cl)s1)Cc1ccccc1 (stereo not given) | 226 |
| CC(C)CCCC(=O)Nc1ccc2c(c1)CC1CCC(C2)C1NS(=O)(=O)c1ccccc1 (stereo not given) | 535 |
| CC(C)(C)c1ccc(S(=O)(=O)NC2C3CCC2Cc2ccccc2C3)cc1 (stereo not given) | > 1000 |
| O=S(=O)(NC1C2CCC1Cc1cc(OCCN3CCC(O)CC3)ccc1C2)c1ccc(Cl)s1 (stereo not given) | 623 |
| O=S(=O)(NC1C2CCC1Cc1cc(F)ccc1C2)c1ccc(Cl)s1 (stereo not given) | 29 |
| O=C(Nc1ccc2c(c1)CC1CCC(C2)C1NS(=O)(=O)c1ccccc1)OCc1ccccc1 (stereo not given) | 74 |
| O=S(=O)(NC1C2CCC1Cc1cc(OCCN3CCCCC3)ccc1C2)c1ccc(Cl)s1 (stereo not given) | 73 |
| O=C(Nc1ccc2c(c1)CC1CCC(C2)C1NS(=O)(=O)c1ccccc1)OCc1cccc(Cl)c1 (stereo not given) | 412 |
| O=S(=O)(NC1C2CCC1Cc1cc(OCCN3CCC(O)C3)ccc1C2)c1ccc(Cl)s1 (stereo not given) | 209 |
| O=C(CN1CCN(c2ccccc2)CC1)Nc1ccc2c(c1)CC1CCC(C2)C1NS(=O)(=O)c1ccc(Cl)s1 (stereo not given) | 5 |
| O=S(=O)(NC1C2CCC1Cc1ccccc1C2)c1cccs1 (stereo not given) | 50 |
| CCCCCS(=O)(=O)NC1C2CCC1Cc1ccccc1C2 (stereo not given) | > 1000 |
| O=C(Nc1ccc2c(c1)CC1CCC(C2)C1NS(=O)(=O)c1ccccc1)c1ccncc1 (stereo not given) | > 1000 |

system: Mus musculus; assay: Reduction of […] beta-40 in transgenic APP-YAC mice 4 hr after 100 mg/kg peroral dose; format: functional; conditions: route oral

| SMILES | Reduction [%] |
| --- | --- |
| O=S(=O)(NC1C2CCC1Cc1cc(/C=C/CN3CCOCC3)ccc1C2)c1ccc(Cl)s1 (stereo in doubt; form 1) [listing 1 of 2 here] | 50 |

system: Mus musculus; assay: Concentration of […] beta40 in plasma of transgenic APP-YAC mice 4 hr after 100 mg/kg peroral dose; format: functional, organism-based; set-up: dose 100 mg/kg; conditions: not given

| SMILES | Plasma concentration [µM] |
| --- | --- |
| O=S(=O)(NC1C2CCC1Cc1cc(/C=C/CN3CCOCC3)ccc1C2)c1ccc(Cl)s1 (stereo in doubt; form 1) [listing 2 of 2 here] | > 7.91 |

system: Mus musculus; assay: Concentration of […] beta40 in brain of transgenic APP-YAC mice 4 hr after 100 mg/kg peroral dose; format: functional; conditions: route oral

| SMILES | Brain concentration [µM] |
| --- | --- |
| O=S(=O)(NC1C2CCC1Cc1cc(/C=C/CN3CCOCC3)ccc1C2)c1ccc(Cl)s1 (stereo in doubt; form 1) [listing 1 of 2 here] | 16.7 |

Reference: ChEMBL document CHEMBL1143656, “A novel series of potent gamma-secretase inhibitors based on a benzobicyclo[4.2.1]nonane core” (Bioorg Med Chem Lett, 2005)
